Measured values as given in US10966990B2, “Midazolam in flexible bags” (InfoRLife SA, priority 2018, dated 2021).

Experiments:
[1] = solubility study of midazolam base in aqueous solution (pH-dependent); format: physicochemical; conditions: midazolam 2 mg/mL in a solution of 0.9% NaCl
Experimental: The solubility of midazolam is less than 0.1 mg/mL at neutral pH and it increases considerably in acidic media. A solubility study has been performed to evaluate the use of midazolam base in the proposed formulation. Since the solubility of midazolam is pH-dependent, the purpose of this study was to evaluate the pH value at which midazolam becomes soluble in aqueous solution. Midazolam at a concentration of 2 mg/mL is soluble in a solution of 0.9% NaCl when the pH reaches a value of about 3.2 pH. The solubility increases at lower pHs. The desired pH of the formulation is about from about 2.5 to about 3.5, preferably 2.8 to 3.2 and more preferably about pH 3. Sufficient acid is added to the solution to achieve the desired pH. Any pharmaceutically acid may be used. Preferably the acid is a pharmaceutically acceptable mineral acid, most preferably hydrochloric acid. If necessary a pharmaceutically acceptable base may be used to raise the pH if needed. The preferred bases are pharmaceutically acceptable inorganic bases such as sodium hydroxide and potassium hydroxide. Sodium hydroxide is the preferred base.

[2] = cited from earlier work
[3] = neutral pH; cited from earlier work

Question: What does the source list for `Cc1ncc2n1-c1ccc(Cl)cc1C(c1ccccc1F)=NC2` [Midazolam]?
Answer: pH value at which midazolam becomes soluble [1]: about 3.2 pH; storage of bag ([2]; isotonic saline IV bag, room temperature): can be stored overnight at room temperature; useful life ([2]; midazolam in lactate Ringer's solution in IV bag): 4 h; solubility of midazolam [3]: less than 0.1 mg/mL
